Our source for the KM values is paper PMC11750938, “Self-sufficient biocatalytic cascade for the continuous synthesis of danshensu in flow” (Applied Microbiology and Biotechnology, 2025).

The target of this test is T1, MpHPPR (hydroxyphenylpyruvate reductase from Mentha x piperita) (Mentha x piperita, UniProt A0A2R4SEK0).
T1 construct: codon-optimised synthetic gene in pET15b, N-terminal His-tag, expressed in E. coli BL21(DE3) Star, Ni-NTA purified, dimer
T1 sequence (A0A2R4SEK0 1-313): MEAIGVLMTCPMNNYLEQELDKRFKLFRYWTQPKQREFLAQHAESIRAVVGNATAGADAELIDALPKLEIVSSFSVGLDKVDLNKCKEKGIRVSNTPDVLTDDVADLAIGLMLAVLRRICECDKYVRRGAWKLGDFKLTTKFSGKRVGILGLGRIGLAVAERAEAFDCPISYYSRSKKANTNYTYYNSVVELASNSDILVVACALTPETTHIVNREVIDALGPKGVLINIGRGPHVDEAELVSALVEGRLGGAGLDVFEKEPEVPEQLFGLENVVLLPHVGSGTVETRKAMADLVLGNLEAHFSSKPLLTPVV
In words: HPLC product quantification. The test is classed as biochemical. As to conditions: pH 7.0, 100 mM potassium phosphate, 37 °C, 10 mM NAD(P)H, 5 mM ß-mercaptoethanol.

Regarding `O=C(O)C(=O)Cc1ccc(O)cc1` [HPPA, 3-(4-Hydroxyphenyl)−2-oxopropanoic acid], the KM result was “Specific activity and KM for phenylpyruvic acid (PPA), 4-hydroxyphenylpyruvic acid (HPPA)”.
With `O=C(O)C(=O)Cc1ccccc1` [PPA, phenylpyruvic acid], the KM result was “Specific activity and KM for phenylpyruvic acid (PPA)”.
